Laboratory results published in ChEMBL document CHEMBL5620397, “Design, synthesis and biological evaluation of 3-substituted-2-thioxothiazolidin-4-one (rhodanine) derivatives as antitubercular agents against Mycobacterium tuberculosis protein tyrosine phosphatase B” (Eur J Med Chem, 2023).
In brackets after ≈: the same amount, converted by molar mass.

Assays:
[1] = target: T1, Triple specificity protein phosphatase PtpB (Mycobacterium tuberculosis (strain ATCC 25618 / H37Rv), UniProt I6WXK4); experiment: Inhibition of Mycobacterium tuberculosis H37Rv ptpB expressed in Escherichia coli BL21(DE3) using pNPP as substrate preincubated for 10 mins followed by substrate addition and measured for 5 mins by spectrophotometer analysis
T1 sequence (I6WXK4 whole entry): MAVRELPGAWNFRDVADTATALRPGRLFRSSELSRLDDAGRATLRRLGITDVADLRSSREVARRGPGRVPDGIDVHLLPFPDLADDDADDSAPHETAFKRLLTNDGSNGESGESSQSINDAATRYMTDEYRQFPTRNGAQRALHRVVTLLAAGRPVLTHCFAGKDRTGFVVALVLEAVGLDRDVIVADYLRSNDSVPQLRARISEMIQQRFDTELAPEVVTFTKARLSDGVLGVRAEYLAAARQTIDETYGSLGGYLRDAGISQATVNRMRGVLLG

[2] = target: T2, Tyrosine-protein phosphatase non-receptor type 1 (Homo sapiens, UniProt P18031); experiment: Inhibition of recombinant human PTP1B using pNPP as substrate preincubated for 5 mins followed by substrate addition and measured for 10 mins; assay type: toxicity
T2 sequence (P18031 whole entry): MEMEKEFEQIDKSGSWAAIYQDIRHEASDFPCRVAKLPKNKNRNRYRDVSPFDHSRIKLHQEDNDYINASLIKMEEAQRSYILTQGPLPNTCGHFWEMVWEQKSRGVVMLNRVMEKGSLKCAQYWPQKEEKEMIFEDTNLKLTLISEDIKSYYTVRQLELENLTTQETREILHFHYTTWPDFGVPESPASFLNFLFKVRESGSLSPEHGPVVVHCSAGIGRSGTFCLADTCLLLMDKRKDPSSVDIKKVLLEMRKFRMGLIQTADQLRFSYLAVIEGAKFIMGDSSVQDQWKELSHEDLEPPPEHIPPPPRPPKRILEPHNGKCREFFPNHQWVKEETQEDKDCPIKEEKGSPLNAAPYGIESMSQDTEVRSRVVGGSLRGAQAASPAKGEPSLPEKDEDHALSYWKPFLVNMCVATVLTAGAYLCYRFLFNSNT

[3] = target: T3, Triple specificity protein phosphatase PtpB (Mycobacterium tuberculosis (strain ATCC 25618 / H37Rv)) (UniProt I6WXK4); experiment: Inhibition of Mycobacterium tuberculosis H37Rv ptpB expressed in Escherichia coli BL21(DE3) at 10 uM using pNPP as substrate preincubated for 10 mins followed by substrate addition and measured for 5 mins by spectrophotometer analysis relative to control; details: time 15.0 min
T3 sequence (whole entry): T1 sequence (I6WXK4 whole entry)

[4] = target: T3, Triple specificity protein phosphatase PtpB (Mycobacterium tuberculosis (strain ATCC 25618 / H37Rv)); experiment: Inhibition of Mycobacterium tuberculosis H37Rv ptpB expressed in Escherichia coli BL21(DE3) at 50 uM using pNPP as substrate preincubated for 10 mins followed by substrate addition and measured for 5 mins by spectrophotometer analysis relative to control; details: time 15.0 min
[5] = test system: Mycobacterium tuberculosis; experiment: Antituberculosis activity against Mycobacterium tuberculosis H37Rv by microplate alamar blue assay; assay type: functional
[6] = Cytotoxicity against mouse J774.G8 cells after 48 hrs by MTT assay; assay type: functional, cell-based; details: J774.G8, 48 h
Vero = experiment: cells; details: Chlorocebus sabaeus, 48 h
Description: Cytotoxicity against african green monkey Vero cells after 48 hrs by MTT assay

SMILES	IC50 [1]	IC50 [2]	inhibition [4]	other results
CCCC[C@@H](C(=O)O)N1C(=O)/C(=C/c2ccc(-c3cccc(Cl)c3)c(Cl)c2)SC1=S	330 nM	940 nM	–	inhibition [3]: 102%
CCCC[C@@H](C(=O)O)N1C(=O)/C(=C/c2ccc(-c3ccncc3Cl)cc2)SC1=S	800 nM	–	97.1%	–
O=C(O)[C@@H](Cc1ccccc1)N1C(=O)/C(=C/c2ccc(-c3ccc(F)c(C(F)(F)F)c3)cc2)SC1=S	–	–	56.8%	–
CCCC[C@@H](C(=O)O)N1C(=O)/C(=C/c2ccc(-c3ccc(Cl)cc3)cc2)SC1=S	600 nM	1510 nM	98.9%	–
CCCC[C@@H](C(=O)O)N1C(=O)/C(=C/c2ccc(-c3ccc(OC)cc3)cc2)SC1=S	550 nM	770 nM	99.4%	–
CCCC[C@@H](C(=O)O)N1C(=O)/C(=C/c2ccc(-c3cccc(Cl)c3)cn2)SC1=S	530 nM	390 nM	–	inhibition [3]: 99.5%
CCCC[C@@H](C(=O)O)N1C(=O)/C(=C/c2ccc(-c3cccc(C(F)(F)F)c3)c3ccccc23)SC1=S	590 nM	40 nM	–	inhibition [3]: 98.6%
O=C(O)CN1C(=O)/C(=C/c2ccc(-c3ccc(F)c(C(F)(F)F)c3)cc2)SC1=S	16400 nM	–	99.4%	–
CCCC[C@@H](C(=O)O)N1C(=O)/C(=C/c2ccc(-c3ccc(Cl)s3)cc2)SC1=S	430 nM	200 nM	98.4%	–
CCN(CC)c1ccc(/C=C2\SC(=S)NC2=O)c(OCc2ccc(Cl)cc2Cl)c1	–	–	> 35%	–
O=C(O)[C@H](Cc1ccccc1)N1C(=O)/C(=C/c2ccc(-c3ccc(F)c(C(F)(F)F)c3)cc2)SC1=S	920 nM	–	71.3%	–
O=C(O)[C@H](C1CCCCC1)N1C(=O)/C(=C/c2ccc(-c3ccccc3C(F)(F)F)cc2)SC1=S	920 nM	1600 nM	93%	–
CCCC[C@@H](C(=O)O)N1C(=O)/C(=C/c2ccc(-c3cccc(OC)c3)cc2)SC1=S	750 nM	430 nM	100%	–
O=C(O)[C@H](C1CCCCC1)N1C(=O)/C(=C/c2ccc(-c3cccc(Cl)c3)cc2)SC1=S	990 nM	1120 nM	106%	–
O=C(O)[C@H](C1CCCCC1)N1C(=O)/C(=C/c2ccc(-c3ccc(C(F)(F)F)cc3)cc2)SC1=S	3130 nM	–	103%	–
CCCC[C@@H](C(=O)O)N1C(=O)/C(=C/c2ccc(-c3cccc(Cl)c3)c3ccccc23)SC1=S	670 nM	1530 nM	–	inhibition [3]: 99.9%
NNC(=O)c1ccncc1 [ISONIAZID]	–	–	–	MIC [5]: 0.038 µg/mL (≈ 0.277 µM); IC50 [6]: > 64 µg/mL; IC50 (Vero): > 64 µg/mL
CCCC[C@@H](C(=O)O)N1C(=O)/C(=C/c2ccc(-c3cccc(Cl)c3)s2)SC1=S	440 nM	160 nM	–	inhibition [3]: 99%
CCCC[C@@H](C(=O)O)N1C(=O)/C(=C/c2ccc(-c3cccc(C(F)(F)F)c3)c(Cl)c2)SC1=S	420 nM	1530 nM	–	inhibition [3]: 99.6%
CCCC[C@@H](C(=O)O)N1C(=O)/C(=C/c2ccc(-c3ccc(C(F)(F)F)cc3)cc2)SC1=S	860 nM	1340 nM	100%	–
CCCC[C@H](C(=O)O)N1C(=O)/C(=C/c2ccc(-c3ccc(F)c(C(F)(F)F)c3)cc2)SC1=S	–	–	26.4%	–
O=C(O)[C@H](c1ccccc1)N1C(=O)/C(=C/c2ccc(-c3ccc(F)c(C(F)(F)F)c3)cc2)SC1=S	2340 nM	–	97%	–
CCCC[C@@H](C(=O)O)N1C(=O)/C(=C/c2ccc(-c3ccccc3)cc2)SC1=S	620 nM	–	94%	–
O=C(O)[C@@H](C1CCCCC1)N1C(=O)/C(=C/c2ccc(-c3ccc(F)c(C(F)(F)F)c3)cc2)SC1=S	–	–	30.5%	–
CCCC[C@@H](C(=O)O)N1C(=O)/C(=C/c2ccc(-c3ccc(F)c(C(F)(F)F)c3)c3ccccc23)SC1=S	670 nM	5540 nM	–	inhibition [3]: 105%
